Test results reported in patent US8785436B2, “1,3-oxazines as BACE 1 and/or BACE2 inhibitors” (Hoffmann-La Roche Inc., priority 2011, dated 2014).

Tests used:
BACE2 = biological target: T1, BACE2 (Rattus norvegicus, UniProt Q6IE75); assay: BACE inhibition by measuring cellular TMEM27 cleavage (INS-TMEM27 cells, ELISA); assay type: cell-based; settings: INS-TMEM27 (Ins1e rat) cells, shed human TMEM27 by ELISA; read-out: BACE2 cell act. IC50
T1 construct: endogenous cellular BACE2 in the Ins1e rat cell line; endogenous in cells; host or cells: INS-TMEM27 (INS1e-derived rat cell line with TetOn-inducible full-length hTMEM27)
T1 sequence (Q6IE75 63-514): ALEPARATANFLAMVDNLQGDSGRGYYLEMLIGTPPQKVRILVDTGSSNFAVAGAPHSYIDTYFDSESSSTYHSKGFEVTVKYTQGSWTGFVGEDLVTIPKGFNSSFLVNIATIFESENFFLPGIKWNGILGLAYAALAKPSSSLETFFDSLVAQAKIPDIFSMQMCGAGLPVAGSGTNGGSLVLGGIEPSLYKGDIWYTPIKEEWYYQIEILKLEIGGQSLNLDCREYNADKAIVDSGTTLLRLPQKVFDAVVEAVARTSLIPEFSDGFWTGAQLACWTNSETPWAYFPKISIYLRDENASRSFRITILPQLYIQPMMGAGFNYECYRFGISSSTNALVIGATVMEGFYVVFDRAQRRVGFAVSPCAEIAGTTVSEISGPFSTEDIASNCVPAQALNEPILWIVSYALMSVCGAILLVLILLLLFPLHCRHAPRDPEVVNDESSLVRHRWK
From the text: Assay for BACE Inhibition by Measuring Cellular TMEM27 Cleavage:
The assay uses the principle of inhibition of human TMEM27 cleavage by endogenous cellular BACE2 in the Ins1e rat cell line and shedding from the cell surface into the culture medium, followed by detection in an ELISA assay Inhibition of BACE2 prevents the cleavage and shedding in a dose-dependent manner.
The stable cell line “INS-TMEM27” represents an INS1e-derived cell line with inducible expression (using the TetOn system) of full-length hTMEM27 in a doxycycline-dependent manner. The cells are cultured throughout the experiment in RPMI1640+Glutamax (Invitrogen) Penicillin/Streptomycin, 10% Fetal bovine serum, […], […], 100 micrograms/ml G418 and 100 microgram/ml hygromycin and are grown inadherent culture at 37° C. in a standard CO2 cell culture incubator.
INS-TMEM27 cells are seeded in 96-well plates. After 2 days in culture, BACE2 inhibitor is added in a range of concentrations as required by the assay and after a further two hours, doxycycline is added to a final concentration of 500 ng/ml. The cells are incubated for a further 46 hours and the supernatant harvested for detection of shed TMEM27.
An ELISA assay (using a pair of mouse anti-human-TMEM27 antibodies, raised against the extracellular domain of TMEM27) is used for detection of TMEM27 in the culture medium. An EC50 for BACE2 inhibition is calculated using the ELISA readout for each inhibitor concentration with standard curve-fitting software such as XLFit for the Excel spreadsheet program.

BACE1 = biological target: T2, BACE1 (Homo sapiens, UniProt P56817); assay: Cellular Aβ-lowering assay a) (Aβ40 ELISA, HEK293 APP cells); assay type: cell-based; settings: cellular assay a): HEK293 APP695 cells, 18-20 hrs incubation, read-out: BACE1 cell act. Aβ40 IC50
T2 construct: Human HEK293 cells which are stably transfected with a vector expressing a cDNA of the human APP wt gene (APP695); endogenous in cells; host or cells: HEK293 cells stably expressing human APP695 wt
Experimental: Cellular Aβ-Lowering Assay:
a) Human HEK293 cells which are stably transfected with a vector expressing a cDNA of the human APP wt gene (APP695) were used to assess the potency of the compounds in a cellular assay. The cells were seeded in 96-well microtiter plates in cell culture medium (Iscove, plus 10% (v/v) fetal bovine serum, glutamine, penicillin/streptomycin) to about 80% confluence and the compounds were added at a 10× concentration in 1/10 volume of medium without FCS containing 8% DMSO (final concentration of DMSO was kept at 0.8% v/v). After 18-20 hrs incubation at 37° C. and 5% CO2 in a humidified incubator the culture supernatant was harvested for the determination of Aβ40 concentrations. 96 well ELISA plates (e.g., Nunc MaxiSorb) were coated with monoclonal antibody which specifically recognize the C-terminal end of Aβ40 (Brockhaus et al., NeuroReport 9, 1481-1486; 1998). After blocking of non-specific binding sites with e.g. 1% BSA and washing, the culture supernatants were added in suitable dilutions together with a horseradish peroxidase-coupled Aβ detection antibody (e.g., antibody 4G8, Senetek, Maryland Heights, Mo.) and incubated for 5 to 7 hrs. Subsequently the wells of the microtiter plate were washed extensively with Tris-buffered saline containing 0.05% Tween 20 and the assay was developed with tetramethylbenzidine/H2O2 in citric acid buffer. After stopping the reaction with one volume 1 NH2SO4 the reaction was measured in an ELISA reader at 450 nm wavelength. The concentrations of Aβ in the culture supernatants were calculated from a standard curve obtained with known amounts of pure Aβ peptide.

T2 sequence (P56817 46-501): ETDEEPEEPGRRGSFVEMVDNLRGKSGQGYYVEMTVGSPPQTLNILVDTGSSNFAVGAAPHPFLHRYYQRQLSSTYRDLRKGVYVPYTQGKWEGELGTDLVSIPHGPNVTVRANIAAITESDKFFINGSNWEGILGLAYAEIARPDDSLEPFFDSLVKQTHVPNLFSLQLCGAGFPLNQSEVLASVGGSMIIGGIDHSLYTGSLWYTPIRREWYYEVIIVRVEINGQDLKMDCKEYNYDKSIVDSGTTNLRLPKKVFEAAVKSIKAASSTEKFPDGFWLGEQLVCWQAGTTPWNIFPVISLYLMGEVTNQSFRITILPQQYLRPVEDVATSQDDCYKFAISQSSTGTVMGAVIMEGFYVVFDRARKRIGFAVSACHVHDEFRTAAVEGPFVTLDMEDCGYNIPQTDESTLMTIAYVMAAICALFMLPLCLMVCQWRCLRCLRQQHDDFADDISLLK

Row | IC50 (BACE2) | IC50 (BACE1) | SMILES
1 | 68 nM | – | Cc1nc(C(C)Nc2ccc(F)c([C@@]3(C)N=C(N)OC[C@]3(C)F)c2)c(C(F)(F)F)o1 (mixture of isomers) [Example 14, (4R,5R)-5-Fluoro-4-{2-fluoro-5-[(RS)-1-(2-methyl-5-trifluoromethyl-oxazol-4-yl)-ethylamino]-phenyl}-4,5-dimethyl-5,6-dihydro-4H-[1,3]oxazin-2-ylamine]
2 | 753 nM | 11 nM | C[C@]1(c2cc(NC3CCc4cc(C#N)cnc43)ccc2F)N=C(N)OCC1(F)F (mixture of isomers) [Example 22, (RS)-7-[3-((R)-2-Amino-5,5-difluoro-4-methyl-5,6-dihydro-4H-[1,3]oxazin-4-yl)-4-fluoro-phenylamino]-6,7-dihydro-5H-[1]pyrindine-3-carbonitrile]
3 | 1700 nM | 73 nM | C[C@]1(c2cc(NC3CCc4cc(Cl)cnc43)ccc2F)N=C(N)OCC1(F)F (mixture of isomers) [Example 23, [3-((R)-2-Amino-5,5-difluoro-4-methyl-5,6-dihydro-4H-[1,3]oxazin-4-yl)-4-fluoro-phenyl]-((RS)-3-chloro-6,7-dihydro-5H-[1]pyrindin-7-yl)-amine]
4 | 180 nM | 13 nM | C[C@@]1(c2cc(NCc3nn(C(F)F)cc3Cl)ccc2F)CCOC(N)=N1 [Example 1, (S)-4-{5-[(4-Chloro-1-difluoromethyl-1H-pyrazol-3-ylmethyl)-amino]-2-fluoro-phenyl}-4-methyl-5,6-dihydro-4H-[1,3]oxazin-2-ylamine]
5 | 970 nM | 310 nM | COc1ccccc1Nc1ccc(F)c([C@@]2(C)N=C(N)OC[C@@H]2F)c1 [Example 3, (4R,5R)-5-Fluoro-4-[2-fluoro-5-(2-methoxy-phenylamino)-phenyl]-4-methyl-5,6-dihydro-4H-[1,3]oxazin-2-ylamine]
6 | 1810 nM | 370 nM | C[C@]1(c2cc(Nc3ccccc3OC(F)F)ccc2F)N=C(N)OC[C@@H]1F [Example 4, (4R,5R)-4-[5-(2-Difluoromethoxy-phenylamino)-2-fluoro-phenyl]-5-fluoro-4-methyl-5,6-dihydro-4H-[1,3]oxazin-2-ylamine]
7 | 1130 nM | 540 nM | C[C@]1(c2cc(NCc3cccs3)ccc2F)N=C(N)OC[C@@H]1F [Example 5, (4R,5R)-5-Fluoro-4-{2-fluoro-5-[(thiophen-2-ylmethyl)-amino]-phenyl}-4-methyl-5,6-dihydro-4H-[1,3]oxazin-2-ylamine]
8 | 240 nM | 780 nM | C[C@]1(c2cc(NCc3ccccc3F)ccc2F)N=C(N)OC[C@@H]1F [Example 7, (4R,5R)-5-Fluoro-4-[2-fluoro-5-(2-fluoro-benzylamino)-phenyl]-4-methyl-5,6-dihydro-4H-[1,3]oxazin-2-ylamine]
9 | 164 nM | 22 nM | C[C@]1(c2cc(NCC3CC3)ccc2F)N=C(N)OC[C@@H]1F [Example 8, (4R,5R)-4-[5-(Cyclopropylmethyl-amino)-2-fluoro-phenyl]-5-fluoro-4-methyl-5,6-dihydro-4H-[1,3]oxazin-2-ylamine]
10 | 588 nM | 39 nM | C[C@]1(F)COC(N)=N[C@]1(C)c1cc(NCc2nn(C(F)F)cc2Cl)ccc1F [Example 12, (4R,5R)-4-{5-[(4-Chloro-1-difluoromethyl-1H-pyrazol-3-ylmethyl)-amino]-2-fluoro-phenyl}-5-fluoro-4,5-dimethyl-5,6-dihydro-4H-[1,3]oxazin-2-ylamine]
11 | 79 nM | 48 nM | Cn1cc(Cl)c(CNc2ccc(F)c([C@@]3(C)N=C(N)OC[C@]3(C)F)c2)n1 [Example 13, (4R,5R)-4-{5-[(4-Chloro-1-methyl-1H-pyrazol-3-ylmethyl)-amino]-2-fluoro-phenyl}-5-fluoro-4,5-dimethyl-5,6-dihydro-4H-[1,3]oxazin-2-ylamine]
12 | 2520 nM | 113 nM | C[C@]1(c2cc(NCc3nn(C(F)F)cc3Cl)ccc2F)N=C(N)OCC1(F)F [Example 16, (R)-4-{5-[(4-Chloro-1-difluoromethyl-1H-pyrazol-3-ylmethyl)-amino]-2-fluoro-phenyl}-5,5-difluoro-4-methyl-5,6-dihydro-4H-[1,3]oxazin-2-ylamine]
13 | 1650 nM | 310 nM | C[C@]1(c2cc(NCC3CC3)ccc2F)N=C(N)OCC1(F)F [Example 25, (R)-4-[5-(Cyclopropylmethyl-amino)-2-fluoro-phenyl]-5,5-difluoro-4-methyl-5,6-dihydro-4H-[1,3]oxazin-2-ylamine]
14 | 10900 nM | 6020 nM | Cc1ccc(Cc2cc3cc(F)c([C@@]4(C)N=C(N)OCC4(F)F)cc3[nH]2)cc1 [Example 40, (R)-5,5-Difluoro-4-[5-fluoro-2-(4-methyl-benzyl)-3H-indol-6-yl]-4-methyl-5,6-dihydro-4H-[1,3]oxazin-2-ylamine]
15 | 4140 nM | 1650 nM | CC1(C)OC(N)=N[C@](C)(c2cc(Nc3ccccc3C#N)ccc2F)C1(F)F [Example 43, 2-[3-((R)-2-Amino-5,5-difluoro-4,6,6-trimethyl-5,6-dihydro-4H-[1,3]oxazin-4-yl)-4-fluoro-phenylamino]-benzonitrile]
16 | 2980 nM | 2090 nM | COc1ccccc1Nc1ccc(F)c([C@@]2(C)N=C(N)OC(C)(C)C2(F)F)c1 [Example 44, (R)-5,5-Difluoro-4-[2-fluoro-5-(2-methoxy-phenylamino)-phenyl]-4,6,6-trimethyl-5,6-dihydro-4H-[1,3]oxazin-2-ylamine]
17 | 1420 nM | 290 nM | CC1(C)OC(N)=N[C@](C)(c2cc(NC3CCCC3)ccc2F)C1(F)F [Example 48, (R)-4-(5-Cyclopentylamino-2-fluoro-phenyl)-5,5-difluoro-4,6,6-trimethyl-5,6-dihydro-4H-[1,3]oxazin-2-ylamine]
18 | 3350 nM | 14500 nM | CC1(C)OC(N)=N[C@](C)(c2cc(-c3cc(Cl)cc(Cl)c3)ccc2F)C1(F)F [Example 51, (R)-4-(3′,5′-Dichloro-4-fluoro-biphenyl-3-yl)-5,5-difluoro-4,6,6-trimethyl-5,6-dihydro-4H-[1,3]oxazin-2-ylamine]
